{
  "source": "patent US6914045B2",
  "about": "“Glycopeptide antibiotics” (Wyeth Holdings Corporation, priority 2001, dated 2005)",
  "assay_in_all_cases": "in vitro antibacterial evaluation, MIC by broth dilution",
  "assay_type_in_all_cases": "cell-based",
  "key": {"Staphylococcus sp.": {"test_system": "Staphylococcus sp.", "conditions": "broth dilution, 18 hours at 35° C.", "in_short": "(§1)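 Inoculum 5×10^5 CFU/mL; concentrations 64 to 0.06 μg/mL; MIC defined as lowest inhibitory level. Conducted by broth dilution under NCCLS guidelines.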"}, "Enterococcus sp.": {"test_system": "Enterococcus sp.", "conditions": "broth dilution, 18 hours at 35° C.", "in_short": "as §1"}, "Streptococcus sp.": {"test_system": "Streptococcus sp.", "conditions": "broth dilution, 18 hours at 35° C.", "in_short": "as §1"}, "Escherichia coli": {"test_system": "Escherichia coli", "conditions": "18 hours at 35° C.", "in_short": "as §1"}},
  "data": [
    {"compound": "CC(C)=CCCC1OCC2OC(OC3C(CO)OC(Oc4ccc(CC5NC(=O)C(C(C)c6ccccc6)NC(=O)CNC(=O)C(CO)NC(=O)C(C(O)C6CNC(=N)N6C6OC(CO)C(O)C(O)C6O)NC(=O)C(C(O)C6CNC(=N)N6)NC5=O)cc4)C(O)C3O)C(O)C(O)C2O1", "note": "(stereo not shown) [Example 123]", "values": [
      {"measurement": "MIC Staphylococcus aureus (ATCC 29213)", "setting": "Staphylococcus sp.", "result": 8, "unit": "µg/mL"},
      {"measurement": "MIC Staphylococcus aureus (GC 1131)", "setting": "Staphylococcus sp.", "result": 8, "unit": "µg/mL"},
      {"measurement": "MIC Staphylococcus aureus (GC 3051)", "setting": "Staphylococcus sp.", "result": 8, "unit": "µg/mL"},
      {"measurement": "MIC Staphylococcus aureus (GC 3053)", "setting": "Staphylococcus sp.", "result": 8, "unit": "µg/mL"},
      {"measurement": "MIC Staphylococcus aureus (GC 4541)", "setting": "Staphylococcus sp.", "result": 4, "unit": "µg/mL"},
      {"measurement": "MIC Staphylococcus aureus (GC 4542)", "setting": "Staphylococcus sp.", "result": 4, "unit": "µg/mL"},
      {"measurement": "MIC Staphylococcus aureus (GC 4544)", "setting": "Staphylococcus sp.", "result": 8, "unit": "µg/mL"},
      {"measurement": "MIC Staphylococcus aureus (GC 4545)", "setting": "Staphylococcus sp.", "result": 8, "unit": "µg/mL"},
      {"measurement": "MIC Staphylococcus aureus (GC 1131)", "setting": "Staphylococcus sp.; inoculum 5×10^5 CFU/mL, strain GC 1131", "result": 8, "unit": "µg/mL"},
      {"measurement": "MIC Staphylococcus aureus (ATCC 29213)", "setting": "Staphylococcus sp.; strain ATCC 29213", "result": 8, "unit": "µg/mL"},
      {"measurement": "MIC Staphylococcus aureus (GC 3051)", "setting": "Staphylococcus sp.; strain GC 3051", "result": 8, "unit": "µg/mL"},
      {"measurement": "MIC Staphylococcus aureus (GC 3053)", "setting": "Staphylococcus sp.; strain GC 3053", "result": 8, "unit": "µg/mL"},
      {"measurement": "MIC Staphylococcus aureus (GC 4541)", "setting": "Staphylococcus sp.; strain GC 4541", "result": 4, "unit": "µg/mL"},
      {"measurement": "MIC Staphylococcus aureus (GC 4542)", "setting": "Staphylococcus sp.; strain GC 4542", "result": 4, "unit": "µg/mL"},
      {"measurement": "MIC Staphylococcus aureus-SMITH (GC 4543)", "setting": "Staphylococcus sp.; strain GC 4543", "result": 4, "unit": "µg/mL"},
      {"measurement": "MIC Staphylococcus aureus (GC 4544)", "setting": "Staphylococcus sp.; strain GC 4544", "result": 8, "unit": "µg/mL"},
      {"measurement": "MIC Staphylococcus aureus (GC 4545)", "setting": "Staphylococcus sp.; strain GC 4545", "result": 8, "unit": "µg/mL"},
      {"measurement": "MIC Staphylococcus haemolyticus (GC 4546)", "setting": "Staphylococcus sp.; strain GC 4546", "result": 8, "unit": "µg/mL"},
      {"measurement": "MIC Coagulase Negative Staphylococcus (GC 4547)", "setting": "Staphylococcus sp.; strain GC 4547", "result": 8, "unit": "µg/mL"},
      {"measurement": "MIC Coagulase Negative Staphylococcus (GC 4548)", "setting": "Staphylococcus sp.; strain GC 4548", "result": 4, "unit": "µg/mL"},
      {"measurement": "MIC Coagulase Negative Staphylococcus (GC 4549)", "setting": "Staphylococcus sp.; strain GC 4549", "result": 4, "unit": "µg/mL"},
      {"measurement": "MIC Coagulase Negative Staphylococcus (GC 4551)", "setting": "Staphylococcus sp.; strain GC 4551", "result": 8, "unit": "µg/mL"},
      {"measurement": "MIC Coagulase Negative Staphylococcus (GC 6257)", "setting": "Staphylococcus sp.; strain GC 6257", "result": 4, "unit": "µg/mL"},
      {"measurement": "MIC Staphylococcus aureus-SMITH (GC 4543)", "setting": "Staphylococcus sp.; strain SMITH GC 4543", "result": 4, "unit": "µg/mL"},
      {"measurement": "MIC Enterococcus avium (GC 4558)", "setting": "Enterococcus sp.; Enterococcus avium (GC 4558)", "result": 16, "unit": "µg/mL"},
      {"measurement": "MIC Enterococcus faecalis (ATCC 29212)", "setting": "Enterococcus sp.; Enterococcus faecalis (ATCC 29212)", "result": 8, "unit": "µg/mL"},
      {"measurement": "MIC Enterococcus faecalis (GC 2242)", "setting": "Enterococcus sp.; Enterococcus faecalis (GC 2242)", "result": 8, "unit": "µg/mL"},
      {"measurement": "MIC Enterococcus faecalis (GC 2691)", "setting": "Enterococcus sp.; Enterococcus faecalis (GC 2691)", "result": 16, "unit": "µg/mL"},
      {"measurement": "MIC Enterococcus faecalis (GC 3059)", "setting": "Enterococcus sp.; Enterococcus faecalis (GC 3059)", "result": 16, "unit": "µg/mL"},
      {"measurement": "MIC Enterococcus faecalis (GC 4552)", "setting": "Enterococcus sp.; Enterococcus faecalis (GC 4552)", "result": 8, "unit": "µg/mL"},
      {"measurement": "MIC Enterococcus faecalis (GC 4553)", "setting": "Enterococcus sp.; Enterococcus faecalis (GC 4553)", "result": 16, "unit": "µg/mL"},
      {"measurement": "MIC Enterococcus faecalis (GC 4554)", "setting": "Enterococcus sp.; Enterococcus faecalis (GC 4554)", "result": 16, "unit": "µg/mL"},
      {"measurement": "MIC Enterococcus faecalis (GC 6189)", "setting": "Enterococcus sp.; Enterococcus faecalis (GC 6189)", "result": 8, "unit": "µg/mL"},
      {"measurement": "MIC Enterococcus faecium (GC 2243)", "setting": "Enterococcus sp.; Enterococcus faecium (GC 2243)", "result": 8, "unit": "µg/mL"},
      {"measurement": "MIC Enterococcus faecium (GC 4556)", "setting": "Enterococcus sp.; Enterococcus faecium (GC 4556)", "result": 8, "unit": "µg/mL"},
      {"measurement": "MIC Enterococcus faecium (GC 4557)", "setting": "Enterococcus sp.; Enterococcus faecium (GC 4557)", "result": 8, "unit": "µg/mL"},
      {"measurement": "MIC Enterococcus faecalis (ATCC 29212)", "setting": "Enterococcus sp.; strain ATCC 29212", "result": 8, "unit": "µg/mL"},
      {"measurement": "MIC Enterococcus faecalis (GC 2242)", "setting": "Enterococcus sp.; strain GC 2242", "result": 8, "unit": "µg/mL"},
      {"measurement": "MIC Enterococcus faecium (GC 2243)", "setting": "Enterococcus sp.; strain GC 2243", "result": 8, "unit": "µg/mL"},
      {"measurement": "MIC Enterococcus faecalis (GC 2691)", "setting": "Enterococcus sp.; strain GC 2691", "result": 16, "unit": "µg/mL"},
      {"measurement": "MIC Enterococcus faecalis (GC 3059)", "setting": "Enterococcus sp.; strain GC 3059", "result": 16, "unit": "µg/mL"},
      {"measurement": "MIC Enterococcus faecalis (GC 4552)", "setting": "Enterococcus sp.; strain GC 4552", "result": 8, "unit": "µg/mL"},
      {"measurement": "MIC Enterococcus faecalis (GC 4553)", "setting": "Enterococcus sp.; strain GC 4553", "result": 16, "unit": "µg/mL"},
      {"measurement": "MIC Enterococcus faecalis (GC 4554)", "setting": "Enterococcus sp.; strain GC 4554", "result": 16, "unit": "µg/mL"},
      {"measurement": "MIC Enterococcus faecium (GC 4556)", "setting": "Enterococcus sp.; strain GC 4556", "result": 8, "unit": "µg/mL"},
      {"measurement": "MIC Enterococcus faecium (GC 4557)", "setting": "Enterococcus sp.; strain GC 4557", "result": 8, "unit": "µg/mL"},
      {"measurement": "MIC Enterococcus avium (GC 4558)", "setting": "Enterococcus sp.; strain GC 4558", "result": 16, "unit": "µg/mL"},
      {"measurement": "MIC Enterococcus faecalis (GC 6189)", "setting": "Enterococcus sp.; strain GC 6189", "result": 8, "unit": "µg/mL"},
      {"measurement": "MIC Streptococcus agalactiae (GC 4564)", "setting": "Streptococcus sp.; Streptococcus agalactiae (GC 4564)", "result": 2, "unit": "µg/mL"},
      {"measurement": "MIC Streptococcus pneumoniae (ATCC 6301)", "setting": "Streptococcus sp.; Streptococcus pneumoniae (ATCC 6301)", "result": 1, "unit": "µg/mL"},
      {"measurement": "MIC Streptococcus pneumoniae (GC 1894)", "setting": "Streptococcus sp.; Streptococcus pneumoniae (GC 1894)", "result": 1, "unit": "µg/mL"},
      {"measurement": "MIC Streptococcus pneumoniae (GC 4565)", "setting": "Streptococcus sp.; Streptococcus pneumoniae (GC 4565)", "result": 2, "unit": "µg/mL"},
      {"measurement": "MIC Streptococcus pyogenes (GC 4563)", "setting": "Streptococcus sp.; Streptococcus pyogenes (GC 4563)", "result": 0.5, "unit": "µg/mL"},
      {"measurement": "MIC Streptococcus pneumoniae (ATCC 6301)", "setting": "Streptococcus sp.; strain ATCC 6301", "result": 1, "unit": "µg/mL"},
      {"measurement": "MIC Streptococcus pneumoniae (GC 1894)", "setting": "Streptococcus sp.; strain GC 1894", "result": 1, "unit": "µg/mL"},
      {"measurement": "MIC Streptococcus pyogenes (GC 4563)", "setting": "Streptococcus sp.; strain GC 4563", "result": 0.5, "unit": "µg/mL"},
      {"measurement": "MIC Streptococcus agalactiae (GC 4564)", "setting": "Streptococcus sp.; strain GC 4564", "result": 2, "unit": "µg/mL"},
      {"measurement": "MIC Streptococcus pneumoniae (GC 4565)", "setting": "Streptococcus sp.; strain GC 4565", "result": 2, "unit": "µg/mL"},
      {"measurement": "MIC Escherichia coli (ATCC 25922)", "setting": "Escherichia coli; strain ATCC 25922", "result": ">64", "unit": "µg/mL"},
      {"measurement": "MIC Escherichia coli (GC 4559)", "setting": "Escherichia coli; strain GC 4559", "result": ">64", "unit": "µg/mL"},
      {"measurement": "MIC Escherichia coli (GC 4560)", "setting": "Escherichia coli; strain GC 4560", "result": 8, "unit": "µg/mL"}
    ]}
  ]
}
